Source: EP4635944A1, “2-AZABICYCLO[3.1.1]HEPTANE COMPOUND” (Daiichi Sankyo Company, Limited, priority 2022, dated 2024)

The compounds below were run against T1, human OX2R (Homo sapiens, UniProt O43614) (assay: Evaluation of OX2R agonist activity (intracellular calcium, CHO-K1 cells with forced expression of human OX2R)). Settings: CHO-K1 cells expressing human OX2R; 100% = 5 µM of the reference compound; read-out: hOX2R EC50.
T1 construct: host or cells: CHO-K1 (Chinese Hamster Ovary K1)
T1 sequence (O43614 1-444): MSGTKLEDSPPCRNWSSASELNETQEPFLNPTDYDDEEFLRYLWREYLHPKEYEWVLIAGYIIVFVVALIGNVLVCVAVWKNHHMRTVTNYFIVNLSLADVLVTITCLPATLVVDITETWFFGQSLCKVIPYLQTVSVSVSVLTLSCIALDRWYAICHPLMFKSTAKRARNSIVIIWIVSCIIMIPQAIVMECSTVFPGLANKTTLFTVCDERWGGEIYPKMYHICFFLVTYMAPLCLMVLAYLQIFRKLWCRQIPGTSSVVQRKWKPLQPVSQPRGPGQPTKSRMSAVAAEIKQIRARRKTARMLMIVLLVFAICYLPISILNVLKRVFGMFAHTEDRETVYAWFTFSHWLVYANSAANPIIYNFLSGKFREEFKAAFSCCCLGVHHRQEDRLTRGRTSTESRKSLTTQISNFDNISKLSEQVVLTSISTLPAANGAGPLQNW
Format: cell-based
Description: Evaluation of OX2R agonist activity
Chinese Hamster Ovary K1 (CHO-K1) cells (GenScript) with forced expression of human OX2R were seeded onto a 384 well microplate (Corning) at 7500 cells/well and cultured for 24 hours. 20 µL of the loading buffer (25 mM HEPES containing 1.25 mM of Probenecid and 2.5 µg/mL of Fluo 4-AM at final concentration, Hank's balanced salt solution, 0.06% Pluronic F-127, Quenching buffer) in the Calcium Kit II (DOJINDO LABORATORIES) was added, and the microplate was allowed to stand for 30 minutes. A reference compound (Example435 of WO 2019/027058, N-[(2S,3S)-2-[[3-(3,5-difluorophenyl)-2-fluoro-phenyl]methyl]-1-(2-hydroxy-2-methylpropanoyl)pyrrolidin-3-yl]ethanesulfonamide) or the test compound was added in 10 µL, and changes in intracellular calcium ion concentration were measured using FDSS7000EX (Hamamatsu Photonics K.K.) as a fluorescence intensity ratio obtained upon dual wavelength excitation at 480 nm and 540 nm. Note that the reference compound or test compound was dissolved in DMSO (final concentration of DMSO was 0.5%) and diluted with an assay buffer (20 mM HEPES, Hank's balanced salt solution, 0.1% BSA). The difference between the maximum and minimum fluorescence values between 5 and 7 seconds after the addition of the test compound or reference compound was used as the indicator. The value of wells to which the assay buffer containing no test compound was added was defined as 0%, and the value of wells to which 5 µM of the reference compound was added was defined as 100%. The 50% effective concentration (EC50 value) was determined from the values obtained when various concentrations of the test compound were added. […]

EC50	Compound
0.034 µM	CC(C)(O)C(=O)N1C2CC(C2)[C@H](NS(C)(=O)=O)[C@@H]1Cc1cccc(-c2cc(F)cc(Cl)c2)c1F [Example 52, N-[(3S,4S)-3-[(3'-Chloro-2,5'-difluoro[biphenyl]-3-yl)methyl]-2-(2-hydroxy-2-methylpropanoyl)-2-azabicyclo[3.1.1]heptan-4-yl]methanesulfonamide]
0.148 µM	CS(=O)(=O)N[C@H]1C2CC(C2)N(C(=O)[C@@H]2C[C@H]2F)[C@H]1Cc1cccc(-c2cc(F)cc(F)c2)c1F [Example 30, N-{(3S,4S)-2-{[(1S,2R)-2-Fluorocyclopropyl]carbonyl}-3-[(2,3',5'-trifluoro[biphenyl]-3-yl)methyl]-2-azabicyclo[3.1.1]heptan-4-yl}methanesulfonamide]
0.039 µM	CS(=O)(=O)N[C@@H]1[C@H](Cc2cccc(-c3ccccc3)c2F)N(C(=O)C2(O)CC2)C2CC1(F)C2 [Example 71, N-{(3S,4R)-5-Fluoro-3-[(2-fluoro[biphenyl]-3-yl)methyl]-2-[(1-hydroxycyclopropyl)carbonyl]-2-azabicyclo[3.1.1]heptan-4-yl}methanesulfonamide]
0.041 µM	CS(=O)(=O)N[C@H]1C2CC(C2)N(C(=O)[C@H](O)C2CC2)[C@H]1Cc1cccc(-c2ccccc2)c1F [Example 64, N-{(3S,4S)-2-[(2R)-2-Cyclopropyl-2-hydroxyacetyl]-3-[(2-fluoro[biphenyl]-3-yl)methyl]-2-azabicyclo[3.1.1]heptan-4-yl}methanesulfonamide]
0.027 µM	CC(C)(O)C(=O)N1C2CC(F)(C2)C(NS(C)(=O)=O)C1Cc1cccc(-c2cc(F)cc(F)c2)c1F (single isomer, unassigned) [Example 12, N-{5-Fluoro-2-(2-hydroxy-2-methylpropanoyl)-3-[(2,3',5'-trifluoro[biphenyl]-3-yl)methyl]-2-azabicyclo[3.1.1]heptan-4-yl}methanesulfonamide]
0.022 µM	C[C@@H](O)C(=O)N1C2CC(C2)[C@H](NS(=O)(=O)C2CC2)[C@@H]1Cc1cccc(-c2ccccc2)c1F [Example 44, N-{(3S,4S)-3-[(2-Fluoro[biphenyl]-3-yl)methyl]-2-[(2R)-2-hydroxypropanoyl]-2-azabicyclo[3.1.1]heptan-4-yl}cyclopropanesulfonamide]
0.049 µM	C[C@@H](O)C(=O)N1C2CC(C2)[C@H](NS(C)(=O)=O)[C@@H]1Cc1cccc(-c2cccc(C3CC3)n2)c1F [Example 43, N-{(3S,4S)-3-[3-(6-Cyclopropylpyridin-2-yl)-2-fluorobenzyl]-2-[(2R)-2-hydroxypropanoyl]-2-azabicyclo[3.1.1]heptan-4-yl}methanesulfonamide]
0.011 µM	C[C@@H](O)C(=O)N1C2CC(C2)[C@H](NS(C)(=O)=O)[C@@H]1Cc1cccc(-c2cc(F)cc(F)c2)c1F [Example 16, N-{(3S,4S)-2-[(2R)-2-Hydroxypropanoyl]-3-[(2,3',5'-trifluoro[biphenyl]-3-yl)methyl]-2-azabicyclo[3.1.1]heptan-4-yl}methanesulfonamide]
0.02 µM	CC(C)(O)C(=O)N1C2CC(F)(C2)[C@H](NS(C)(=O)=O)[C@@H]1Cc1cccc(-c2cccc(C(F)F)c2)c1F [Example 49, N-[(3S,4R)-3-{[3'-(Difluoromethyl)-2-fluoro[biphenyl]-3-yl]methyl}-5-fluoro-2-(2-hydroxy-2-methylpropanoyl)-2-azabicyclo[3.1.1]heptan-4-yl]methanesulfonamide]
0.094 µM	CS(=O)(=O)N[C@H]1C2CC(C2)N(C(=O)NCC2CC2)[C@H]1Cc1cccc(-c2cc(F)cc(F)c2)c1F [Example 39, (3S,4S)-N-(Cyclopropylmethyl)-4-[(methylsulfonyl)amino]-3-[(2,3',5'-trifluoro[biphenyl]-3-yl)methyl]-2-azabicyclo[3.1.1]heptane-2-carboxamide]
0.239 µM	CCS(=O)(=O)NC1C2CC(C2)N(C(=O)C23CC(C2)C3)C1Cc1cccc(-c2cc(F)cc(F)c2)c1F (single isomer, unassigned) [Example 5, N-{2-(Bicyclo[1.1.1]pentan-1-ylcarbonyl)-3-[(2,3',5'-trifluoro[biphenyl]-3-yl)methyl]-2-azabicyclo[3.1.1]heptan-4-yl}ethanesulfonamide]
0.38 µM	CS(=O)(=O)N[C@H]1C2CC(C2)N(C(=O)C2(F)CC2)[C@H]1Cc1cccc(-c2cc(F)cc(F)c2)c1F [Example 19, N-{(3S,4S)-2-[(1-Fluorocyclopropyl)carbonyl]-3-[(2,3',5'-trifluoro[biphenyl]-3-yl)methyl]-2-azabicyclo[3.1.1]heptan-4-yl}methanesulfonamide]
0.092 µM	CCS(=O)(=O)N[C@H]1C2CC(C2)N(C(=O)C(C)(C)O)[C@H]1Cc1cccc(-c2cc(F)cc(F)c2)c1F (single isomer, unassigned) [Example 3]
0.032 µM	CS(=O)(=O)N[C@H]1C2CC(C2)N(C(=O)C2CC2)[C@H]1Cc1cccc(-c2cc(F)cc(F)c2)c1F [Example 20, N-{(3S,4S)-2-(Cyclopropylcarbonyl)-3-[(2,3',5'-trifluoro[biphenyl]-3-yl)methyl]-2-azabicyclo[3.1.1]heptan-4-yl}methanesulfonamide]
0.037 µM	C[C@@H](O)C(=O)N1C2CC(C2)[C@H](NS(C)(=O)=O)[C@@H]1Cc1cccc(-c2csc(Cl)c2)c1F [Example 68, N-{(3S,4S)-3-[3-(5-Chlorothiophen-3-yl)-2-fluorobenzyl]-2-[(2R)-2-hydroxypropanoyl]-2-azabicyclo[3.1.1]heptan-4-yl}methanesulfonamide]
0.326 µM	CS(=O)(=O)N[C@H]1C2CC(C2)N(C(=O)C2(C#N)CC2)[C@H]1Cc1cccc(-c2cc(F)cc(F)c2)c1F [Example 33, N-{(3S,4S)-2-[(1-Cyanocyclopropyl)carbonyl]-3-[(2,3',5'-trifluoro[biphenyl]-3-yl)methyl]-2-azabicyclo[3.1.1]heptan-4-yl}methanesulfonamide]
0.289 µM	CS(=O)(=O)N[C@H]1C2CC(C2)N(C(=O)CO)[C@H]1Cc1cccc(-c2cc(F)cc(F)c2)c1F [Example 34, N-{(3S,4S)-2-(Hydroxyacetyl)-3-[(2,3',5'-trifluoro[biphenyl]-3-yl)methyl]-2-azabicyclo[3.1.1]heptan-4-yl}methanesulfonamide]
0.05 µM	CS(=O)(=O)N[C@H]1C2CC(C2)N(C(=O)C2(CO)CC2)[C@H]1Cc1cccc(-c2ccccc2)c1F [Example 73, N-[(3S,4S)-3-[(2-Fluoro[biphenyl]-3-yl)methyl]-2-{[1-(hydroxymethyl)cyclopropyl]carbonyl}-2-azabicyclo[3.1.1]heptan-4-yl]methanesulfonamide]
0.079 µM	CS(=O)(=O)N[C@@H]1[C@H](Cc2cc(F)cc(-c3cccc(Cl)c3)c2F)N(C(=O)[C@H](O)C(F)(F)F)C2CC1(F)C2 (single isomer, unassigned) [Example 82]
0.112 µM	C[C@H](O)CC(=O)N1C2CC(C2)[C@H](NS(C)(=O)=O)[C@@H]1Cc1cccc(-c2ccccc2)c1F (single isomer, unassigned) [Example 86]
0.112 µM	CS(=O)(=O)N[C@H]1C2CC(C2)N(C(=O)C(O)C(F)F)[C@H]1Cc1cccc(-c2ccccc2)c1F (single isomer, unassigned) [Example 72]
0.043 µM	CCS(=O)(=O)NC1C2CC(C2)N(C(=O)[C@@H](C)O)C1Cc1cc(F)cc(-c2ccccc2)c1F (single isomer, unassigned) [Example 81]
0.04 µM	CS(=O)(=O)N[C@@H]1[C@H](Cc2cc(F)cc(-c3ccccc3)c2F)N(C(=O)[C@H](O)C(F)(F)F)C2CC1(F)C2 [Example 79, N-{(3S,4R)-3-[(2,5-Difluoro[biphenyl]-3-yl)methyl]-5-fluoro-2-[(2S)-3,3,3-trifluoro-2-hydroxypropanoyl]-2-azabicyclo[3.1.1]heptan-4-yl}methanesulfonamide]
0.069 µM	CS(=O)(=O)N[C@@H]1[C@H](Cc2cccc(-c3ccccc3)c2F)N(C(=O)[C@@H]2CC2(F)F)C2CC1(F)C2 [Example 78, N-{(3S,4R)-2-{[(1S)-2,2-Difluorocyclopropyl]carbonyl}-5-fluoro-3-[(2-fluoro[biphenyl]-3-yl)methyl]-2-azabicyclo[3.1.1]heptan-4-yl}methanesulfonamide]
0.106 µM	CC(=O)N1C2CC(F)(C2)[C@H](NS(C)(=O)=O)[C@@H]1Cc1cccc(-c2cccc(Cl)c2)c1F [Example 46, N-{(3S,4R)-2-Acetyl-3-[(3'-chloro-2-fluoro[biphenyl]-3-yl)methyl]-5-fluoro-2-azabicyclo[3.1.1]heptan-4-yl}methanesulfonamide]
